Data on 11 compounds can be found in DBAASP.

In brackets after ≈: the same amount, converted by molar mass. Several values for one entry are separate records, joined by “and”; a condition that tells them apart may be missing. Identical values can stand only once.

Test in all cases: ≥ marks a high value that may be exact or a test limit, other limits are often not marked, values filed in µg/mL are converted to µM
For one test, the system named is Escherichia coli BL21.
The subject of test [1] is Pseudomonas aeruginosa PAO1.
Test [2] concerns Streptococcus pyogenes M1T1 5448.
In test [3] the test system is Batrachochytrium dendrobatidis.
For test [4], the system named is Escherichia coli ATCC 25726.
Test [5] deals with Staphylococcus aureus ATCC 25923.
Test [6] relates to Staphylococcus aureus NCTC 8325.
The test system of test [7] is Pseudomonas aeruginosa H1001.
Test [8] has as its system Escherichia coli ATCC 25922.
Test [9] has as its system Acinetobacter baumannii ATCC 17978.
For test [10], the system named is Escherichia coli ATCC 8739.
The test system of test [11] is Escherichia coli DSM 1103.
The test system of test [12] is Pseudomonas aeruginosa DSM 1117.
Test [13] deals with Staphylococcus aureus DSM 1104.
Test [14] deals with Staphylococcus aureus HNCMO 112011.
Test [15] deals with Staphylococcus epidermidis DSM 1798.

`CC[C@H](C)[C@H](NC(=O)[C@H](CCCCN)NC(=O)[C@H](C)NC(=O)[C@H](CCCN=C(N)N)NC(=O)[C@H](CCCCN)NC(=O)CNC(=O)[C@H](CCCCN)NC(=O)[C@H](CCC(=O)O)NC(=O)[C@H](CCC(N)=O)NC(=O)[C@@H](NC(=O)[C@@H](NC(=O)[C@H](CCCCN)NC(=O)[C@H](CCCCN)NC(=O)[C@H](CC(C)C)NC(=O)[C@H](Cc1ccccc1)NC(=O)[C@H](CCC(N)=O)NC(=O)[C@H](CCCN=C(N)N)NC(=O)[C@@H](NC(=O)[C@@H](NC(=O)[C@H](CCC(=O)O)NC(=O)[C@H](CCCCN)NC(=O)CNC(=O)[C@H](C)N)[C@@H](C)O)[C@@H](C)CC)[C@@H](C)O)[C@@H](C)CC)C(=O)N[C@@H](Cc1c[nH]c2ccccc12)C(=O)N[C@@H](Cc1c[nH]c2ccccc12)C(=O)O` [AGKETIRQFLKKTIQEKGKRAKIWW]: the MIC – broadly, the lowest concentration that inhibits growth of the organism – in the test with Escherichia coli BL21 is 2 µM (≈ 6.09 µg/mL); in test [1] it was 32 µM (≈ 97.4 µg/mL); in test [2], 0.125 µM (≈ 0.381 µg/mL).
Take `CC[C@H](C)[C@H](NC(=O)[C@H](Cc1ccccc1)NC(=O)[C@H](C)NC(=O)[C@H](CCCCN)NC(=O)[C@H](CCCCN)NC(=O)CNC(=O)[C@H](CCCN=C(N)N)NC(=O)[C@H](CCCCN)NC(=O)[C@H](CCCN=C(N)N)NC(=O)[C@H](CC(C)C)NC(=O)[C@H](CCC(=O)O)NC(=O)[C@H](CCC(=O)O)NC(=O)[C@H](CC(C)C)NC(=O)[C@H](CC(C)C)NC(=O)[C@H](Cc1ccc(O)cc1)NC(=O)[C@H](CCCCN)NC(=O)[C@@H](NC(=O)[C@H](CC(C)C)NC(=O)[C@H](C)NC(=O)[C@H](CCC(N)=O)NC(=O)[C@H](CCCN=C(N)N)NC(=O)CNC(=O)[C@H](C)N)[C@@H](C)O)C(=O)N[C@@H](Cc1c[nH]c2ccccc12)C(=O)N[C@@H](Cc1c[nH]c2ccccc12)C(=O)O` [AGRQALTKYLLEELRKRGKKAFIWW]: the minimal inhibitory concentration (MIC) in the test on Escherichia coli BL21 was 4 µM (≈ 12.3 µg/mL); in test [1] it was more than 128 µM; in test [2], 2 µM (≈ 6.13 µg/mL).
For `CC[C@H](C)[C@H](NC(=O)[C@H](Cc1c[nH]c2ccccc12)NC(=O)[C@H](CCC(N)=O)NC(=O)[C@H](CCCN=C(N)N)NC(=O)CNC(=O)[C@H](C)N)C(=O)N[C@@H](CCCCN)C(=O)N[C@@H](C)C(=O)N[C@@H](Cc1ccc(O)cc1)C(=O)N[C@@H](CC(C)C)C(=O)N[C@@H](CCCN=C(N)N)C(=O)N[C@@H](CCCN=C(N)N)C(=O)N[C@@H](CCC(=O)O)C(=O)N[C@H](C(=O)N[C@@H](CCCN=C(N)N)C(=O)N[C@@H](CCCCN)C(=O)N[C@@H](CCCN=C(N)N)C(=O)NCC(=O)N[C@@H](CCCN=C(N)N)C(=O)N[C@@H](CCCCN)C(=O)N[C@@H](C)C(=O)N[C@H](C(=O)N[C@H](C(=O)N[C@@H](C)C(=O)N[C@@H](Cc1c[nH]c2ccccc12)C(=O)O)[C@@H](C)CC)C(C)C)[C@@H](C)CC` [AGRQWIKAYLRREIRKRGRKAVIAW], in that order: 2 µM (≈ 6.17 µg/mL), 16 µM (≈ 49.3 µg/mL) and 2 µM (≈ 6.17 µg/mL).
For `CC[C@H](C)[C@H](NC(=O)[C@@H]1CCCN1C(=O)[C@H](CC(C)C)NC(=O)[C@@H](N)Cc1ccccc1)C(=O)N[C@H](C(=O)NCC(=O)N[C@@H](CCCCN)C(=O)N[C@@H](CC(C)C)C(=O)N[C@@H](CC(C)C)C(=O)N[C@@H](CO)C(=O)NCC(=O)N[C@@H](CC(C)C)C(=O)N[C@@H](CC(C)C)C(N)=O)C(C)C` [FLPIVGKLLSGLL], the minimum inhibitory concentration (MIC) is not below 49.6 µM in test [3], not below 128 µM in test [4], 8 µM (≈ 11 µg/mL) in [5] and not below 110 µM in test [6].
`CC(C)C[C@H](NC(=O)[C@H](CCCCN)NC(=O)[C@H](CCC(N)=O)NC(=O)[C@H](CC(N)=O)NC(=O)[C@H](CC(C)C)NC(=O)[C@H](CC(=O)O)NC(=O)[C@H](CCC(=O)O)NC(=O)[C@@H]1CCCN1C(=O)[C@@H](NC(=O)[C@H](C)NC(=O)CN)[C@@H](C)O)C(=O)N[C@@H](CO)C(N)=O` [GATPEDLNQKLS]: in test [7], the minimum inhibitory concentration (MIC) is not below 196 µM.
On to `CC[C@H](C)[C@H](NC(=O)[C@H](CCCCN)NC(=O)[C@H](CS)NC(=O)[C@H](C)NC(=O)[C@@H](NC(=O)[C@H](CC(C)C)NC(=O)[C@H](CC(N)=O)NC(=O)[C@@H](NC(=O)CNC(=O)[C@H](CC(C)C)NC(=O)[C@H](CCCNC(=N)N)NC(=O)[C@H](C)NC(=O)[C@H](CC(C)C)NC(=O)[C@H](CC(=O)O)NC(=O)[C@H](CCCCN)NC(=O)CNC(=O)[C@H](CC(C)C)NC(=O)CNC(=O)[C@H](CCCCN)NC(=O)[C@H](CO)NC(=O)[C@H](C)NC(=O)[C@H](Cc1ccccc1)NC(=O)[C@H](CCCCN)NC(=O)[C@H](C)NC(=O)[C@@H](NC(=O)CNC(=O)[C@H](CCCNC(=N)N)NC(=O)[C@H](Cc1ccccc1)NC(=O)[C@@H](NC(=O)[C@H](CO)NC(=O)[C@H](CO)NC(=O)[C@H](Cc1ccccc1)NC(=O)CN)[C@@H](C)CC)C(C)C)C(C)C)C(C)C)C(=O)N[C@@H](CO)C(=O)N[C@@H](CCCCN)C(=O)N[C@@H](CCC(N)=O)C(=O)N[C@@H](CS)C(=O)O` [GFSSIFRGVAKFASKGLGKDLARLGVNLVACKISKQC], for which the minimal inhibitory concentration (MIC) in [3] is ≥ 50 µM and 25 µM; in [8], 10 µM (≈ 38.7 µg/mL).
For the compound `CC[C@H](C)[C@H](NC(=O)[C@H](CCCCN)NC(=O)[C@H](CCCCN)NC(=O)[C@H](C)NC(=O)[C@H](CC(C)C)NC(=O)[C@H](C)NC(=O)[C@H](C)NC(=O)[C@H](CC(C)C)NC(=O)[C@H](C)NC(=O)[C@H](CCCCN)NC(=O)[C@H](CC(C)C)NC(=O)[C@H](CC(N)=O)NC(=O)[C@@H](NC(=O)[C@H](CCCCN)NC(=O)CNC(=O)[C@H](CC(C)C)NC(=O)[C@H](CC(C)C)NC(=O)[C@H](Cc1ccc(O)cc1)NC(=O)CNC(=O)[C@H](C)NC(=O)[C@H](CO)NC(=O)[C@H](CC(N)=O)NC(=O)[C@H](CC(C)C)NC(=O)[C@@H](NC(=O)[C@H](Cc1c[nH]c2ccccc12)NC(=O)CN)[C@@H](C)O)[C@@H](C)CC)C(=O)N[C@@H](CC(C)C)C(=O)O` [GWTLNSAGYLLGKINLKALAALAKKIL], the minimal inhibitory concentration (MIC) was 3.1 µM (≈ 8.81 µg/mL) in test [9]; 3.1 µM (≈ 8.81 µg/mL) in test [10]; not below 43 µM in [11]; not below 86 µM in test [12]; not below 43 µM in test [13]; 3.1 µM (≈ 8.81 µg/mL) in test [14]. Further, the MIC in [15] turned out to be 5 µM (≈ 14.2 µg/mL).
For `CC[C@H](C)[C@H](NC(=O)[C@H](CCCCN)NC(=O)[C@H](CCCCN)NC(=O)[C@H](C)NC(=O)[C@H](CC(C)C)NC(=O)[C@H](C)NC(=O)[C@H](C)NC(=O)[C@H](CC(C)C)NC(=O)[C@H](C)NC(=O)[C@@H](N)CCCCN)C(=O)N[C@@H](CC(C)C)C(=O)N[C@@H](CCC(N)=O)C(=O)N[C@@H](CCC(N)=O)C(=O)N[C@@H](CS)C(=O)N[C@@H](CCCN=C(N)N)C(=O)N[C@@H](CCCN=C(N)N)C(=O)N1CCC[C@H]1C(=O)N[C@@H](CC(C)C)C(=O)N[C@@H](Cc1ccc(O)cc1)C(=O)N[C@@H](CS)C(=O)N[C@@H](CCCN=C(N)N)C(=O)N[C@@H](CCCN=C(N)N)C(=O)N[C@@H](CCCN=C(N)N)C(=O)O` [KALAALAKKILQQCRRPLYCRRR], the MIC in test [9] is 3.1 µM (≈ 8.54 µg/mL); in [10] it was 6.3 µM (≈ 17.4 µg/mL); in test [14], 3.1 µM (≈ 8.54 µg/mL).
`CSCC[C@H](NC(=O)[C@H](CCCCN)NC(=O)[C@H](Cc1ccccc1)NC(=O)[C@H](CC(N)=O)NC(=O)[C@H](CC(C)C)NC(=O)[C@@H]1CCCN1C(=O)[C@@H](N)CCCN=C(N)N)C(=O)N[C@@H](CC(C)C)C(=O)N[C@@H](CCCN=C(N)N)C(=O)N[C@@H](Cc1ccccc1)C(=O)N[C@@H](Cc1c[nH]c2ccccc12)C(=O)NCC(=O)N[C@@H](CCC(N)=O)C(=O)N[C@@H](CCC(N)=O)C(=O)N[C@@H](CCC(N)=O)C(=O)N[C@@H](CS)C(=O)N[C@@H](CCCN=C(N)N)C(=O)N[C@@H](CCCN=C(N)N)C(=O)N1CCC[C@H]1C(=O)N[C@@H](CC(C)C)C(=O)N[C@@H](Cc1ccc(O)cc1)C(=O)N[C@@H](CS)C(=O)N[C@@H](CCCN=C(N)N)C(=O)N[C@@H](CCCN=C(N)N)C(=O)N[C@@H](CCCN=C(N)N)C(=O)O` [RPLNFKMLRFWGQQQCRRPLYCRRR]: the minimum inhibitory concentration (MIC) in test [9], in [10] and in [14] was 3.1 µM (≈ 10.3 µg/mL) each time.
`CC[C@H](C)[C@H](NC(=O)[C@H](C)NC(=O)[C@@H](NC(=O)[C@H](CCCCN)NC(=O)[C@H](CCCCN)NC(=O)[C@H](Cc1cnc[nH]1)NC(=O)[C@@H](NC(=O)[C@@H](N)CCCN=C(N)N)C(C)C)[C@@H](C)CC)C(=O)N[C@@H](CO)C(=O)N[C@H](C(=O)O)C(C)C` [RVHKKIAISV] registered an MIC in test [7] not below 174 µM.
In turn, `CC[C@H](C)[C@H](NC(=O)[C@H](CCCN=C(N)N)NC(=O)[C@H](CCCN=C(N)N)NC(=O)[C@@H]1CCCN1C(=O)[C@H](CC(C)C)NC(=O)[C@H](CCCN=C(N)N)NC(=O)[C@@H]1CCCN1C(=O)[C@H](CCCN=C(N)N)NC(=O)[C@@H]1CCCN1C(=O)[C@H](CC(C)C)NC(=O)[C@H](Cc1ccc(O)cc1)NC(=O)[C@@H]1CCCN1C(=O)[C@@H]1CCCN1C(=O)[C@H](CCCCN)NC(=O)[C@H](CC(=O)O)NC(=O)[C@@H](N)C(C)C)C(=O)N[C@@H](Cc1ccc(O)cc1)C(=O)N[C@@H](CC(N)=O)C(=O)N[C@@H](CCCN=C(N)N)C(=O)NCC(=O)O` [VDKPPYLPRPRLPRRIYNRG] returned an MIC in test [7] of 0.11 µM (≈ 0.27 µg/mL).
